Test results taken from PMC7904550, “Application of grouping and read-across for the evaluation of parabens of different chain lengths with a particular focus on endocrine properties” (Archives of Toxicology, 2021).

Legend:
Wistar rats = test: Higher-tier studies taken together (OECD TG 408, 414, 421/422, 443): NOAEL; conditions: over all higher-tier studies
Experimental: All in vivo studies were conducted as oral gavage studies, selecting the oral route as most appropriate route of administration to reflect the worst-case exposure scenario. […] The OECD TG 443 included mating of first generation (F1) offspring to produce a second generation (F2), and the DIT and DNT cohorts.

in vivo = conditions: for concentration at 1 h / Tmax / AUC(0-t) / Cmax: Wistar, rat, serum; for concentration at 1 h: oral; for Tmax / AUC(0-t) / Cmax: po
Experimental: These studies were conducted similarly to OECD TG 417 applying 500 and 1000 mg/kg body weight (bw) test item via oral gavage to 10 males and 10 females per dose group. Focus of the toxicokinetic evaluation was on the measurement of the serum concentrations of the parent compounds and their (common) major metabolite p-hydroxybenzoic acid by […] in order to assess the systemic uptake and elimination of the parent compounds and this major metabolite [see also ECHA ([2017a])]. The limit of quantification was determined as 10 ng/mL for all parabens, and as 130 ng/mL for p-hydroxybenzoic acid. […] On account of these major aims, investigations of the faeces and urine were not included in the toxicokinetics screening studies.

bacteria = conditions: OECD 471; ref ECHA dissemination portal; cited from earlier work
mammalian cells = conditions: OECD 476; ref ECHA dissemination portal; cited from earlier work
[1] = parent compound, 500 mg/kg, female
[2] = parent compound, 500 mg/kg, male
[3] = parent compound, 1000 mg/kg, female
[4] = parent compound, 1000 mg/kg, male

COC(=O)c1ccc(O)cc1 [Methyl paraben, Methyl 4-hydroxybenzoate]
NOAEL: No. of ovarian follicles (Wistar rats): 1000 / 1000 mg/kg bw/day
NOAEL: Oestrus cyclicity (Wistar rats): 1000 / 1000 mg/kg bw/day
NOAEL: Offspring: learning & memory (Wistar rats): 1000 / 1000 mg/kg bw/day
NOAEL: Ovary HP (Wistar rats): 1000 / 1000 mg/kg bw/day
NOAEL: Ovary weight (Wistar rats): 1000 / 1000 mg/kg bw/day
NOAEL: Oviduct HP (Wistar rats): 1000 / 1000 mg/kg bw/day
NOAEL: Pituitary HP (Wistar rats): 1000 / 1000 mg/kg bw/day
NOAEL: Pituitary weight (Wistar rats): 1000 / 1000 mg/kg bw/day
NOAEL: Postimplantation loss (Wistar rats): 1000 / 1000 mg/kg bw/day
NOAEL: Pre-implantation loss (Wistar rats): 1000 / 1000 mg/kg bw/day
NOAEL: Presence of anomalies (Wistar rats): 1000 / 1000 mg/kg bw/day
NOAEL: Prostate HP (Wistar rats): 1000 / 1000 mg/kg bw/day
NOAEL: Prostate weight (Wistar rats): 1000 / 1000 mg/kg bw/day
NOAEL: Pup development (Wistar rats): 1000 / 1000 mg/kg bw/day
NOAEL: Reproduction (Wistar rats): 1000 / 1000 mg/kg bw/day
NOAEL: Seminal vesicles HP (Wistar rats): 1000 / 1000 mg/kg bw/day
NOAEL: Seminal vesicles weight (Wistar rats): 1000 / 1000 mg/kg bw/day
NOAEL: Testis HP (Wistar rats): 1000 / 1000 mg/kg bw/day
NOAEL: Testis weight (Wistar rats): 1000 / 1000 mg/kg bw/day
NOAEL: Thyroid HP (Wistar rats): 1000 / 1000 mg/kg bw/day
NOAEL: Thyroid stimulating hormone level (Wistar rats): 1000 / 1000 mg/kg bw/day
NOAEL: Thyroid weight (Wistar rats): 1000 / 1000 mg/kg bw/day
NOAEL: Time to mating (Wistar rats): 1000 / 1000 mg/kg bw/day
NOAEL: Triiodothyronine / thyroxine level (Wistar rats): 1000 / 1000 mg/kg bw/day
NOAEL: Uterus HP (with cervix) (Wistar rats): 1000 / 1000 mg/kg bw/day
NOAEL: Uterus weight (with cervix) (Wistar rats): 1000 / 1000 mg/kg bw/day
NOAEL: Vagina HP (Wistar rats): 1000 / 1000 mg/kg bw/day
NOAEL: Vaginal smears (Wistar rats): 1000 / 1000 mg/kg bw/day
concentration at 1 h (in vivo; female, 500 mg/kg): 338 ng/mL
concentration at 1 h (in vivo; female, 1000 mg/kg): 924 ng/mL
Tmax (in vivo; female, 500 mg/kg): 4.8 min
AUC(0-t) (in vivo; female, 500 mg/kg, AUC0-1 h, parent compound): 6450 ng·h/mL
AUC(0-t) (in vivo; female, 500 mg/kg, AUC0–t, parent compound): 9500 ng·h/mL
Cmax (in vivo; female, 500 mg/kg, parent compound): 21200 ng/mL
Tmax (in vivo; female, 1000 mg/kg): 4.8 min
AUC(0-t) (in vivo; female, 1000 mg/kg, AUC0-1 h, parent compound): 11400 ng·h/mL
AUC(0-t) (in vivo; female, 1000 mg/kg, AUC0–t, parent compound): 20500 ng·h/mL
Cmax (in vivo; female, 1000 mg/kg, parent compound): 33600 ng/mL
Cmax (in vivo; female, 1000 mg/kg, parent compound, females): ~34000 ng/mL
concentration at 1 h (in vivo; male, 500 mg/kg): 172 ng/mL
concentration at 1 h (in vivo; male, 1000 mg/kg): 552 ng/mL
Tmax (in vivo; male, 500 mg/kg): 4.8 min
AUC(0-t) (in vivo; male, 500 mg/kg, AUC0-1 h, parent compound): 1110 ng·h/mL
AUC(0-t) (in vivo; male, 500 mg/kg, AUC0–t, parent compound): 1790 ng·h/mL
Cmax (in vivo; male, 500 mg/kg, parent compound): 6200 ng/mL
AUC(0-t) (in vivo; male, 1000 mg/kg, AUC0-1 h, parent compound): 4640 ng·h/mL
AUC(0-t) (in vivo; male, 1000 mg/kg, AUC0–t, parent compound): 6150 ng·h/mL
Cmax (in vivo; male, 1000 mg/kg, parent compound): 10800 ng/mL
Cmax (in vivo; male, 1000 mg/kg, parent compound, males): ~11000 ng/mL
Rank of maximum serum concentration among the four parabens (in vivo; parent compound): highest maximum serum concentrations
AUC0-1 h/AUC0–t (in vivo; [1]): 68%
C1h/Cmax (in vivo; [1]): 1.6%
Clast (in vivo; [1]): 77.3 ng/mL
tlast (in vivo; [1]): 8.0 h
AUC0-1 h/AUC0–t (in vivo; [2]): 62%
C1h/Cmax (in vivo; [2]): 2.8%
Clast (in vivo; [2]): 48.6 ng/mL
tlast (in vivo; [2]): 8.0 h
AUC0-1 h/AUC0–t (in vivo; [3]): 55%
C1h/Cmax (in vivo; [3]): 2.7%
Clast (in vivo; [3]): 179 ng/mL
tlast (in vivo; [3]): 8.0 h
AUC0-1 h/AUC0–t (in vivo; [4]): 75%
C1h/Cmax (in vivo; [4]): 5.1%
Clast (in vivo; [4]): 122 ng/mL
tlast (in vivo; [4]): 8.0 h
Mutagenicity in bacteria classification (bacteria): Not mutagenic (OECD 471; 1982, 1991)
Mutagenicity in mammalian cells classification (mammalian cells): Not mutagenic [c] (OECD 476; 2019)
